Results on five molecules are retold here after US10010607B2, “Method for preparing viral particles with cyclic dinucleotide and use of said particles for inducing immune response” (priority 2014, dated 2018).

For one test, the system named is HEK293 cells. Format: cell-based, human. The following applies: for IFN response in target cells in the presence of inhibitor: HEK293 cells infected with HIV-1-GFP from cGAS expressing cells, inhibitor 5 μM 1 hour prior to infection; for IFN induction by HIV-1-GFP from inhibitor-treated cGAS-reconstituted producer cells: 20 μM GW4869 or 60 μM Ac-DEVD-CHO during virus preparation.

The subject of the next test is IFNβ promoter reporter. Format: cell-based, human. The following applies: HEK293 cells transfected with 2 μg 2′-3′-cGAMP, 24 hours.

For `Cc1ccnc2c1NC(=O)c1cccnc1N2C1CC1` [nevirapine], the “IFN response in target cells in the presence of inhibitor” value in the test on HEK293 cells is reported as “independent”.
In the case of `Nc1nc2c(ncn2[C@@H]2O[C@@H]3COP(=O)(O)O[C@H]4[C@@H](O)[C@H](n5cnc6c(N)ncnc65)O[C@@H]4COP(=O)(O)O[C@@H]2[C@@H]3O)c(=O)[nH]1` [cGAMP, 2′-3′-cyclic GMP-AMP], the “IFN induction in response to cGAMP (IFNβ promoter reporter)” value in the test with IFNβ promoter reporter is given as “induce IFN”.
Regarding `O=C(/C=C/c1ccc(/C=C/C(=O)Nc2ccc(C3=NCCN3)cc2)cc1)Nc1ccc(C2=NCCN2)cc1` [GW4869], the “IFN induction by HIV-1-GFP from inhibitor-treated cGAS-reconstituted producer cells” value in the test with HEK293 cells is “did not diminish IFN induction”.
Regarding Ac-DEVD-CHO, the “IFN induction by HIV-1-GFP from inhibitor-treated cGAS-reconstituted producer cells” value in the test on HEK293 cells is “did not diminish IFN induction”.
Take `Cc1nnc(C(=O)NC(C)(C)c2nc(C(=O)NCc3ccc(F)cc3)c(O)c(=O)n2C)o1` [raltegravir]: in the test with HEK293 cells, the “IFN response in target cells in the presence of inhibitor” value was “independent”.
